Test results taken from patent US4325970A, “15-Acetyl-prostaglandins” (Hoffmann-La Roche Inc., priority 1980, dated 1982).

System: gastric secretion
Assay: gastric secretory depressant test in the unanesthetized rat with acute gastric fistula (acid concentration, acid output, pH)
Format: in vivo
Conditions: 10 μg/kg b.w. I.G.
Experimental: were tested as gastric secretory depressants in the unanesthesized rat with acute gastric fistula by the following procedure:
During this baseline period, the pH of the secretory flow was about 1.5 for each animal. Individual samples were collected at 10-minute intervals during this baseline period to monitor the pH. The compounds dissolved in polyethylene glycol-400 were administered intragastrically (I.G.) after this baseline period and samples were continuously collected for up to 180 minutes. The samples of gastric contents were subsequently assayed for volume, total acid concentration (μEq/ml) and total acid output for 10 minutes (μEq/10 minutes).
In addition to intragastric (I.G.) dosages, the activity of these compounds was tested for intraduodenal (I.D.) and intravenous administration (I.V.) to unanesthetized rats with acute gastric fistula as described above. For I.D. administration, the compounds were dissolved in polyethylene glycol-400. On the other hand, a trimethylolnitro-methane/ethanol solution was used for I.V. dosing. […] With this dose and route of administration of Compound A, a pronounced effect on pH was seen, an average increase of 3.1 pH units over 3 hours post administration. With the I.G. dose of Compound A of 5 μg/Kg b.w., an average increase of 1.6 pH units occurred. […] The antisecretory effect of Compound A seen after I.V. administration (10 μg/Kg b.w.) was low, amounting to about 1/4 to 1/5 that seen following I.G. dosage of Compound A. With the I.V. route of administration at this dose of Compound A (10 μg/Kg b.w.) effect on pH was minimal, 1/10 to 1/20 that seen after I.G. administration of an identical dose of Compound A.

[1] = 20 minutes after administration
[2] = 30 minutes after administration
[3] = 40 minutes after administration
[4] = 50 minutes after administration
[5] = 60 minutes after administration
[6] = 70 minutes after administration
[7] = 80 minutes after administration
[8] = 90 minutes after administration

CCCCC(C)(C)[C@H](O)/C=C/C1[C@H](C)CC(=O)[C@@H]1C/C=C\CCCC(=O)O (stereo in doubt) [Compound B, (8R,11R,12S,15R,5Z,13E)-15-hydroxy-11,16,16-trimethyl-9-oxoprosta-5,13-dien-1-oic acid, reference compound]
% Inhibition, acid concentration (S.E.M.) [1]: 62 (5) % | % Inhibition, acid output (S.E.M.) [1]: 69 (3) % | % Inhibition, acid concentration (S.E.M.) [2]: 67 (6) % | % Inhibition, acid output (S.E.M.) [2]: 72 (2) % | % Inhibition, acid concentration (S.E.M.) [3]: 58 (6) % | % Inhibition, acid output (S.E.M.) [3]: 68 (6) % | % Inhibition, acid concentration (S.E.M.) [4]: 59 (5) % | % Inhibition, acid output (S.E.M.) [4]: 73 (2) % | % Inhibition, acid concentration (S.E.M.) [5]: 43 (5) % | % Inhibition, acid output (S.E.M.) [5]: 78 (7) % | % Inhibition, acid concentration (S.E.M.) [6]: 45 (5) % | % Inhibition, acid output (S.E.M.) [6]: 71 (3) % | % Inhibition, acid concentration (S.E.M.) [7]: 44 (6) % | % Inhibition, acid output (S.E.M.) [7]: 77 (7) % | % Inhibition, acid concentration (S.E.M.) [8]: 25 (13) % | % Inhibition, acid output (S.E.M.) [8]: 57 (17) %
